The values that follow are results of earlier work, collected in patent US20030104065A1, “Method of preparing solid dispersions” (priority 2002, published 2003).

For this data set the following is noted: local anesthetic effect, versus lidocaine.

For the compound `CCCN1CCCC[C@H]1C(=O)Nc1c(C)cccc1C` [ropivacaine], the “therapeutic potency relative to lidocaine” value is “about 50 times”.
